Assay results reported in the supplement of paper PMC7017272.
± gives the standard deviation of the averaged measurements.

Columns and labels:
Details in all cases: treatment time: 3 days
UT-SCC-24A [1] = assay: maximal % inhibition of viability relative to DMSO; higher = stronger effect
Method: (§1)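 HNSCC cell lines (500 cells/well, 384-well) were cultured on plastic, on top of (2D) or embedded (3D) in Matrigel or human leiomyoma matrix Myogel (500 ug/mL; Myogel 3D mixed with rat collagen I). Cells were treated for 3 days with 5 ten-fold concentrations of each drug, and viability was read by CellTiter-Glo. Viability was normalised to DMSO (0% inhibition) and 100 uM benzethonium chloride (100% inhibition) controls and fitted with the FIMM DSRT pipeline to give IC50 (nM), maximal % inhibition and the drug sensitivity score (DSS). Suffixes _1/_2/_3 on drug names are replicates.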

UT-SCC-24A [2] = assay: drug sensitivity score (DSS); higher = more sensitive
Method: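 HNSCC cell lines (500 cells/well, 384-well) were cultured on plastic, on top of (2D) or embedded (3D) in Matrigel or human leiomyoma matrix Myogel (500 ug/mL; Myogel 3D mixed with rat collagen I). Cells were treated for 3 days with 5 ten-fold concentrations of each drug, and viability was read by CellTiter-Glo. Suffixes _1/_2/_3 on drug names are replicates.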

UT-SCC-8 = assay: drug sensitivity score (DSS); higher = more sensitive; extreme values may be limits of the assay
Procedure, shortened: (§2)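 Viability of HPV-negative HNSCC cell lines was measured by CellTiter-Glo 2.0 luminescence. Cells were seeded at 500 cells/well in 384-well plates on plastic, on Matrigel- or Myogel-coated wells (500 µg/mL), or embedded in Matrigel or Myogel plus rat collagen I, then given compounds at five 10-fold concentrations for 3 days, with signals normalised to vehicle (0.1% DMSO) and cell-killing control wells. Fitting of percent-inhibition dose–response curves in the FIMM pipeline yielded IC50, maximal inhibition and drug sensitivity score.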

UT-SCC-73 = assay: as above
Procedure, shortened: as §2

UT-SCC-40 = assay: as above
Procedure, shortened: as §2

UT-SCC-14 [3] = assay: as above
Procedure, shortened: as §2

UT-SCC-42B [4] = assay: as above
Procedure, shortened: as §2

UT-SCC-24B = assay: as above
Procedure, shortened: as §2

UT-SCC-28 = assay: as above
Procedure, shortened: as §2

UT-SCC-42A = assay: as above
Procedure, shortened: as §2

UT-SCC-106A = assay: as above
Procedure, shortened: as §2

UT-SCC-44 = assay: as above
Procedure, shortened: as §2

UT-SCC-81 [5] = assay: as above
Procedure, shortened: as §2

UT-SCC-14 [6] = assay: maximal % inhibition of viability relative to DMSO; higher = stronger effect
Method: as §1, with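 “DMSO” for “DMSO (0% inhibition)”, “and” for “and 100 uM”, “chloride” for “chloride (100% inhibition)”, “DSS.” for “the drug sensitivity score (DSS).”, “_1/_2/_3” for “_1/_2/_3 on drug names”, “replicates. Only inhibition-mode (IC50) fits are kept.” for “replicates.”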

UT-SCC-42B [7] = assay: as above
Method: as §1, with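 “DMSO” for “DMSO (0% inhibition)”, “and” for “and 100 uM”, “chloride” for “chloride (100% inhibition)”, “DSS.” for “the drug sensitivity score (DSS).”, “_1/_2/_3” for “_1/_2/_3 on drug names”, “replicates. Only inhibition-mode (IC50) fits are kept.” for “replicates.”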

UT-SCC-81 [8] = assay: as above
Method: as §1, with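 “DMSO” for “DMSO (0% inhibition)”, “and” for “and 100 uM”, “chloride” for “chloride (100% inhibition)”, “DSS.” for “the drug sensitivity score (DSS).”, “_1/_2/_3” for “_1/_2/_3 on drug names”, “replicates. Only inhibition-mode (IC50) fits are kept.” for “replicates.”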

UT-SCC-24A [9] = assay: relative IC50 (midpoint of the fitted curve; maximal inhibition may be below 50%); higher = less potent
Method: as §1

[10] = culture condition: embedded in Matrigel
[11] = culture condition: embedded in Myogel + collagen I
[12] = culture condition: on top of Matrigel
[13] = culture condition: on top of Myogel
[14] = culture condition: plastic 2D (no matrix)

CO[C@H]1C[C@@H]2CC[C@@H](C)[C@@](O)(O2)C(=O)C(=O)N2CCCC[C@H]2C(=O)O[C@H]([C@H](C)C[C@@H]2CC[C@@H](O)[C@H](OC)C2)CC(=O)[C@H](C)/C=C(\C)[C@@H](O)[C@@H](OC)C(=O)[C@H](C)C[C@H](C)/C=C/C=C/C=C/1C [Sirolimus]
maximal % inhibition of viability (UT-SCC-24A [1]; [10]): 69 ± 4.9% | maximal % inhibition of viability (UT-SCC-24A [1]; [11]): 77.4 ± 8.1% | maximal % inhibition of viability (UT-SCC-24A [1]; [12]): 71.57 ± 0.55% | maximal % inhibition of viability (UT-SCC-24A [1]; [13]): 65.5 ± 2.4% | maximal % inhibition of viability (UT-SCC-24A [1]; [14]): 67.9 ± 2.4% | drug sensitivity score (UT-SCC-24A [2]; [10]): 9 ± 4.9 DSS | drug sensitivity score (UT-SCC-24A [2]; [11]): 16.4 ± 1.2 DSS | drug sensitivity score (UT-SCC-24A [2]; [12]): 12.7 ± 3.7 DSS | drug sensitivity score (UT-SCC-24A [2]; [13]): 13.7 ± 1.2 DSS | drug sensitivity score (UT-SCC-24A [2]; [14]): 12.9 ± 2.5 DSS | drug sensitivity score (UT-SCC-8; [10]): 12.2 ± 11 DSS | drug sensitivity score (UT-SCC-8; [11]): 3.87 ± 6.7 DSS | drug sensitivity score (UT-SCC-8; [12]): 11.5 ± 10 DSS | drug sensitivity score (UT-SCC-8; [13]): 11.3 ± 9.8 DSS | drug sensitivity score (UT-SCC-8; [14]): 12.4 ± 11 DSS | drug sensitivity score (UT-SCC-73; [10]): 12.4 ± 4.3 DSS | drug sensitivity score (UT-SCC-73; [11]): 8.07 ± 1.6 DSS | drug sensitivity score (UT-SCC-73; [12]): 11.9 ± 5.2 DSS | drug sensitivity score (UT-SCC-73; [13]): 10.1 ± 0.81 DSS | drug sensitivity score (UT-SCC-73; [14]): 7.43 ± 0.31 DSS | drug sensitivity score (UT-SCC-40; [10]): 5.4 ± 4.9 DSS | drug sensitivity score (UT-SCC-40; [11]): 4.83 ± 4.2 DSS | drug sensitivity score (UT-SCC-40; [12]): 3.2 ± 5.5 DSS | drug sensitivity score (UT-SCC-40; [13]): 4.67 ± 4.1 DSS | drug sensitivity score (UT-SCC-40; [14]): 0 DSS | drug sensitivity score (UT-SCC-14 [3]; [10]): 19.3 ± 2.1 DSS | drug sensitivity score (UT-SCC-14 [3]; [11]): 15.4 ± 2.7 DSS | drug sensitivity score (UT-SCC-14 [3]; [12]): 15.6 ± 3.3 DSS | drug sensitivity score (UT-SCC-14 [3]; [13]): 15.4 ± 3.1 DSS | drug sensitivity score (UT-SCC-14 [3]; [14]): 15.1 ± 3.8 DSS | drug sensitivity score (UT-SCC-42B [4]; [10]): 3.47 ± 6 DSS | drug sensitivity score (UT-SCC-42B [4]; [12]): 3.07 ± 5.3 DSS | drug sensitivity score (UT-SCC-42B [4]; [13]): 0 DSS | drug sensitivity score (UT-SCC-42B [4]; [14]): 3.8 ± 3.4 DSS | drug sensitivity score (UT-SCC-24B; [10]): 22.9 ± 0.36 DSS | drug sensitivity score (UT-SCC-24B; [11]): 19.5 ± 4 DSS | drug sensitivity score (UT-SCC-24B; [12]): 18.9 ± 4.8 DSS | drug sensitivity score (UT-SCC-24B; [13]): 17.2 ± 3.4 DSS | drug sensitivity score (UT-SCC-24B; [14]): 16.8 ± 4.1 DSS | drug sensitivity score (UT-SCC-28; [10]): 7.27 ± 5.1 DSS | drug sensitivity score (UT-SCC-28; [11]): 7.53 ± 7 DSS | drug sensitivity score (UT-SCC-28; [12]): 9.87 ± 0.93 DSS | drug sensitivity score (UT-SCC-28; [14]): 6.97 ± 1.6 DSS | drug sensitivity score (UT-SCC-42A; [10]): 10.6 ± 4.6 DSS | drug sensitivity score (UT-SCC-42A; [11]): 9.5 ± 0.92 DSS | drug sensitivity score (UT-SCC-42A; [12]): 12.9 ± 1.6 DSS | drug sensitivity score (UT-SCC-42A; [13]): 12.3 ± 1.6 DSS | drug sensitivity score (UT-SCC-42A; [14]): 11.2 ± 0.82 DSS | drug sensitivity score (UT-SCC-106A; [10]): 4.7 ± 4.3 DSS | drug sensitivity score (UT-SCC-106A; [11]): 3.73 ± 3.3 DSS | drug sensitivity score (UT-SCC-106A; [12]): 8.67 ± 3.8 DSS | drug sensitivity score (UT-SCC-106A; [13]): 7.03 ± 3.8 DSS | drug sensitivity score (UT-SCC-106A; [14]): 10 ± 3.3 DSS | drug sensitivity score (UT-SCC-44; [10]): 6.6 ± 5.8 DSS | drug sensitivity score (UT-SCC-44; [11]): 13.9 ± 2.7 DSS | drug sensitivity score (UT-SCC-44; [12]): 13.1 ± 0.99 DSS | drug sensitivity score (UT-SCC-44; [13]): 14.2 ± 3.2 DSS | drug sensitivity score (UT-SCC-44; [14]): 15 ± 1.4 DSS | drug sensitivity score (UT-SCC-81 [5]; [10]): 14.2 ± 4.6 DSS | drug sensitivity score (UT-SCC-81 [5]; [11]): 14.9 ± 2.7 DSS | drug sensitivity score (UT-SCC-81 [5]; [12]): 17.1 ± 1.8 DSS | drug sensitivity score (UT-SCC-81 [5]; [13]): 16.6 ± 2.1 DSS | drug sensitivity score (UT-SCC-81 [5]; [14]): 17.8 ± 1.2 DSS | maximal % inhibition of viability (UT-SCC-14 [6]; [10]): 73.1 ± 6.3% | maximal % inhibition of viability (UT-SCC-14 [6]; [11]): 60.2 ± 7.8% | maximal % inhibition of viability (UT-SCC-14 [6]; [12]): 70.8 ± 8.7% | maximal % inhibition of viability (UT-SCC-14 [6]; [13]): 66.2 ± 9% | maximal % inhibition of viability (UT-SCC-14 [6]; [14]): 64.4 ± 6.4% | maximal % inhibition of viability (UT-SCC-42B [7]; [10]): 85 ± 3.7% | maximal % inhibition of viability (UT-SCC-42B [7]; [12]): 76.5 ± 1.4% | maximal % inhibition of viability (UT-SCC-42B [7]; [13]): 76.5 ± 1.6% | maximal % inhibition of viability (UT-SCC-42B [7]; [14]): 74.1 ± 2.6% | maximal % inhibition of viability (UT-SCC-81 [8]; [10]): 89.7 ± 3.3% | maximal % inhibition of viability (UT-SCC-81 [8]; [11]): 80 ± 4.9% | maximal % inhibition of viability (UT-SCC-81 [8]; [12]): 82.1 ± 1.4% | maximal % inhibition of viability (UT-SCC-81 [8]; [13]): 77.3 ± 1.9% | maximal % inhibition of viability (UT-SCC-81 [8]; [14]): 78.8 ± 3.2% | relative IC50 (UT-SCC-24A [9]; [11]): 1.86 nM | relative IC50 (UT-SCC-24A [9]; [13]): 2.01 nM
